# Measurements as given in patent publication US5827846A, “Carbazole derivatives as agents against multi-drug resistance” (Novartis Corp., priority 1994, dated 1998).
# Tests used:
# [1] = system: KB-8511 (drug-resistant, P-glycoprotein [Pgp] overexpressing) cells; assay: Inhibition of cell growth of drug-resistant KB-8511 cells (methylene blue staining, 4 days); assay type: cell-based, Human; details: 5760 min
# Protocol: The KB-8511 cells are kept as stock in the presence of 10 ng/ml of the antineoplastically active substance Colcemid (demecolcine). […] The plates are then incubated under the conditions mentioned above for 4 days. […] After washing, the dye is eluted with 3% (w/v) aqueous hydrochloric acid. The optical density (OD) per well, which is directly proportional to the number of cells, is then measured with a photometer at 665 nm. The IC50 values are calculated by means of a computer system, using the formula
# [2] = system: human parental drug-sensitive KB-31 tumours; assay: In vivo antitumour activity against drug-sensitive KB-31 tumours in nude mice; parameters: species or system female Balb/c nude mice; details: KB-31 tumour
# Protocol: (§1) The determination of the in vivo antitumour activity of test substance B (=N-benzoyl-6-benzyl-staurosporin) against the drug-sensitive parental KB-31 and a multidrug-resistant variant of the KB-31, i.e. the multidrug-resistant variant KB-8511, tumours is carried out in female Balb/c nude mice (Bomholdgaard, Copenhagen, Denmark) bearing serially passaged (minimum of three consecutive transplantations) either the human parental drug-sensitive KB-31 tumours or the human KB-8511 tumours. The KB-8511 tumours overexpress Pgb, the product of the mdr-1 gene (S. Akiyma et al., "Isolation and genetic characterization of human KB cell lines resistant to multiple drug", Somatic Cell and Mol. Gen. 11, 117-126 [1985]). Tumour fragments of approximately 25 mg are transplanted into the left flank of each animal (n=6 per group). […] Tumour growth is monitored twice weekly by measuring perpendicular diameters. Tumour volumes are determined as described by T. Meyer et al., Int. J. Cancer 43, 851-856 (1989), and expressed as relative tumour size (i.e. the increase in tumour volume compared with the tumour volume at the start of the treatment).
# human KB-8511 tumours = assay: In vivo antitumour activity against multidrug-resistant KB-8511 tumours in nude mice; parameters: species or system female Balb/c nude mice; details: for T/C [%] (median tumour volumes treated versus control): KB-8511 tumour
# Protocol: as §1
smiles,measurement,setting,value
"CC[C@]1(O)C[C@@H]2CN(CCc3c([nH]c4ccccc34)[C@@](C(=O)OC)(c3cc4c(cc3OC)N(C)[C@H]3[C@@](O)(C(=O)OC)[C@H](OC(C)=O)[C@]5(CC)C=CCN6CC[C@]43[C@@H]65)C2)C1 [A, vinblastine]",% growth of KB 8511 cells,[1]; A 2.34 ng/ml alone,101%
same,% growth of KB 8511 cells,[1]; A 4.69 ng/ml alone,101%
same,% growth of KB 8511 cells,[1]; A 9.38 ng/ml alone,98%
same,% growth of KB 8511 cells,[1]; A 18.8 ng/ml alone,98%
same,% growth of KB 8511 cells,[1]; A 37.5 ng/ml alone,98%
same,% growth of KB 8511 cells,[1]; A 75.0 ng/ml alone,90%
same,% growth of KB 8511 cells,[1]; A 150 ng/ml alone,66%
same,% growth of KB 8511 cells,[1]; A 300 ng/ml alone,14%
"CO[C@@H]1[C@H](N(C)C(=O)c2ccccc2)C[C@H]2O[C@]1(C)n1c3ccccc3c3c4c(c5c6ccccc6n2c5c31)C(=O)N(Cc1ccccc1)C4 [B, N-benzoyl-6-benzyl-staurosporin]",% growth of KB 8511 cells,[1]; B 0.1 μmol alone,92%
same,% growth of KB 8511 cells,[1]; B 1 μmol alone (Example 10),95%
same,% growth of KB 8511 cells,[1]; B 1 μmol alone (Example 11),82%
same,T/C [%] (median tumour volumes treated versus control),[2]; 1 × 25 mg/kg p.o.,91%
same,Sensitisation of KB-8511 tumours to adriamycin,human KB-8511 tumours; 25 mg/kg p.o. 4 hours prior to adriamycin 9.0 mg/kg i.v.,sensitises the multi-drug resistant KB-8511 tumours to adriamycin
same,T/C [%] (median tumour volumes treated versus control),human KB-8511 tumours; 1 × 25 mg/kg p.o.,93%
"COc1cccc2c1C(=O)c1c(O)c3c(c(O)c1C2=O)C[C@@](O)(C(=O)CO)C[C@@H]3O[C@H]1C[C@H](N)[C@H](O)[C@H](C)O1 [C, adriamycin]",T/C [%] (median tumour volumes treated versus control),[2]; 1 × 9 mg/kg i.v.,13%
same,Maximal tumour regression,"[2]; adriamycin 1×9 mg/kg i.v. alone, on day 5",24%
same,T/C [%] (median tumour volumes treated versus control),human KB-8511 tumours; 1 × 9 mg/kg i.v.,89%
